# In patent publication US11458171B2, “Engineering stem cells for cancer therapy” (CHINA MEDICAL UNIVERSITY, priority 2018, dated 2022):
# Tested on: UMSCs
# Experiment: Effect of GCV on plain UMSCs
# Assay type: cell-based, human
# Conditions: GCV alone on unmodified UMSCs
compound,measurement,value
"Nc1nc(O)c2ncn(COC(CO)CO)c2n1 [GCV, ganciclovir]",cell proliferation of UMSCs,did not affect cell proliferation
